“And” between values parts separate entries of the source, which are not always exact repeats. Equal values may be shown once. Inconclusive results and toxic doses are left out. No stated cut-off is given here; in the data, active means T/C of 150% or more; inactive means T/C below 125%.
System: L1210 leukemia ip in BDF1 mice, survival T/C
Assay: NCI In Vivo Anticancer Drug Screen. Data for tumor model L1210 Leukemia (intraperitoneal) in B6D2F1 (BDF1) mice
Settings: endpoint: mean survival time, higher = longer survival
How it was run: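 In this screen, tumor-bearing mice given compound are compared to those given vehicle, and their survival values are reported as a treated-to-control quotient.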

[1] = dose: 100.0 mg/kg/injection, schedule: Q04DX003 (ip), vehicle: saline with Tween-80
[2] = dose: 200.0 mg/kg/injection, schedule: Q04DX003 (ip), vehicle: saline with Tween-80
[3] = dose: 400.0 mg/kg/injection, schedule: Q04DX003 (ip), vehicle: saline with Tween-80
[4] = dose: 25.0 mg/kg/injection, schedule: Q04DX003 (ip), vehicle: Klucel (hydroxypropylcellulose) (HPC)
[5] = dose: 50.0 mg/kg/injection, schedule: Q04DX003 (ip), vehicle: Klucel (hydroxypropylcellulose) (HPC)
[6] = dose: 100.0 mg/kg/injection, schedule: Q01DX001 (ip), vehicle: Klucel (hydroxypropylcellulose) (HPC)
[7] = dose: 100.0 mg/kg/injection, schedule: Q04DX003 (ip), vehicle: Klucel (hydroxypropylcellulose) (HPC)
[8] = dose: 200.0 mg/kg/injection, schedule: Q01DX001 (ip), vehicle: Klucel (hydroxypropylcellulose) (HPC)
[9] = dose: 100.0 mg/kg/injection, schedule: Q01DX009 (ip), vehicle: Klucel (hydroxypropylcellulose) (HPC)
[10] = dose: 200.0 mg/kg/injection, schedule: Q01DX009 (ip), vehicle: Klucel (hydroxypropylcellulose) (HPC)
[11] = dose: 100.0 mg/kg/injection, schedule: Q01DX001 (ip), vehicle: carboxymethylcellulose (CMC)
[12] = dose: 200.0 mg/kg/injection, schedule: Q01DX001 (ip), vehicle: carboxymethylcellulose (CMC)
[13] = dose: 400.0 mg/kg/injection, schedule: Q01DX001 (ip), vehicle: carboxymethylcellulose (CMC)
[14] = dose: 100.0 mg/kg/injection, schedule: Q04DX003 (ip), vehicle: saline

Measured: T/C

O=C1OC(=O)C2C3C=CC(O3)C12 (centres undefined)
inactive: dose: 6.25 mg/kg/injection, schedule: Q01DX009 (ip), vehicle: saline 97 % of control | dose: 10.0 mg/kg/injection, schedule: Q04DX003 (ip), vehicle: saline with Tween-80 96 % of control | dose: 12.5 mg/kg/injection, schedule: Q01DX009 (ip), vehicle: saline with Tween-80 111 % of control | dose: 12.5 mg/kg/injection, schedule: Q01DX009 (ip), vehicle: saline 96 % of control | dose: 20.0 mg/kg/injection, schedule: Q04DX003 (ip), vehicle: saline with Tween-80 100 % of control | dose: 25.0 mg/kg/injection, schedule: Q01DX009 (ip), vehicle: saline with Tween-80 108 % of control | dose: 25.0 mg/kg/injection, schedule: Q01DX009 (ip), vehicle: saline 95 % of control | dose: 40.0 mg/kg/injection, schedule: Q04DX003 (ip), vehicle: saline with Tween-80 94 % of control | dose: 50.0 mg/kg/injection, schedule: Q01DX009 (ip), vehicle: saline with Tween-80 95 % of control

O=C1C2CCCC1C(c1ccccc1)C=C2c1ccc(O)cc1 (centres undefined)
inactive: [1] 97 % of control | [2] 96 % of control | [3] 94 % of control

C/C(CCC(=O)O)=N/N=C(N)N
inactive: dose: 15.0 mg/kg/injection, schedule: Q01DX Z (ip), vehicle: carboxymethylcellulose (CMC) 100 % of control | dose: 30.0 mg/kg/injection, schedule: Q01DX Z (ip), vehicle: carboxymethylcellulose (CMC) 106 % of control | dose: 60.0 mg/kg/injection, schedule: Q01DX Z (ip), vehicle: carboxymethylcellulose (CMC) 106 % of control | dose: 120.0 mg/kg/injection, schedule: Q01DX Z (ip), vehicle: carboxymethylcellulose (CMC) 95 % of control and 102 % of control | dose: 240.0 mg/kg/injection, schedule: Q01DX Z (ip), vehicle: carboxymethylcellulose (CMC) 108 % of control | dose: 480.0 mg/kg/injection, schedule: Q01DX Z (ip), vehicle: carboxymethylcellulose (CMC) 104 % of control

CCCCCCCCN(CCCCCCCC)CC(O)c1ccc2cc(Br)c3ccccc3c2c1 (centres undefined)
inactive: dose: 100.0 mg/kg/injection, schedule: Q04DX003 (ip), vehicle: acetone 113 % of control | dose: 200.0 mg/kg/injection, schedule: Q04DX003 (ip), vehicle: acetone 120 % of control | dose: 400.0 mg/kg/injection, schedule: Q04DX003 (ip), vehicle: acetone 103 % of control

CCN(CC)CCOc1cccc(O)c1
inactive: [4] 94 % of control | [5] 97 % of control | [6] 93 % of control | [7] 100 % of control and 107 % of control | [8] 91 % of control

O=C(Nc1cc(F)ccc1F)Oc1cccnc1
inactive: dose: 25.0 mg/kg/injection, schedule: Q01DX001 (ip), vehicle: Klucel (hydroxypropylcellulose) (HPC) 102 % of control | [4] 107 % of control | dose: 50.0 mg/kg/injection, schedule: Q01DX001 (ip), vehicle: Klucel (hydroxypropylcellulose) (HPC) 104 % of control | [5] 106 % of control | dose: 75.0 mg/kg/injection, schedule: Q01DX009 (ip), vehicle: Klucel (hydroxypropylcellulose) (HPC) 103 % of control and 108 % of control | [6] 96 % of control | [9] 95 % of control and 109 % of control | dose: 100.0 mg/kg/injection, schedule: Q04DX002 (ip), vehicle: Klucel (hydroxypropylcellulose) (HPC) 95 % of control and 105 % of control | [7] 97 % of control | dose: 150.0 mg/kg/injection, schedule: Q01DX009 (ip), vehicle: Klucel (hydroxypropylcellulose) (HPC) 107 % of control | [10] 100 % of control | dose: 200.0 mg/kg/injection, schedule: Q04DX002 (ip), vehicle: Klucel (hydroxypropylcellulose) (HPC) 100 % of control and 108 % of control | dose: 400.0 mg/kg/injection, schedule: Q04DX002 (ip), vehicle: Klucel (hydroxypropylcellulose) (HPC) 94 % of control and 87 % of control

CC(CCO)CCC1OC1(C)C (centres undefined)
inactive: dose: 100.0 mg/kg/injection, schedule: Q01DX001 (ip), vehicle: saline 103 % of control | dose: 200.0 mg/kg/injection, schedule: Q01DX001 (ip), vehicle: saline 105 % of control | dose: 400.0 mg/kg/injection, schedule: Q01DX001 (ip), vehicle: saline 103 % of control

Cc1cc(NC(=O)CCc2ccc(N3C(N)=NC(N)=NC3(C)C)cc2)ccc1S(=O)(=O)F (tested in a mixture with another compound)
inactive: [6] 90 % of control | [8] 90 % of control | dose: 400.0 mg/kg/injection, schedule: Q01DX001 (ip), vehicle: Klucel (hydroxypropylcellulose) (HPC) 92 % of control

COc1ccc(OC)c(CC(CC(=O)O)(C(=O)O)C(=O)O)c1
inactive: [7] 91 % of control | dose: 200.0 mg/kg/injection, schedule: Q04DX003 (ip), vehicle: Klucel (hydroxypropylcellulose) (HPC) 96 % of control | dose: 400.0 mg/kg/injection, schedule: Q04DX003 (ip), vehicle: Klucel (hydroxypropylcellulose) (HPC) 96 % of control

CCOC(=O)Cc1c(C)c2c(O)cc(O)cc2oc1=O
inactive: [11] 97 % of control | [12] 89 % of control | [13] 97 % of control

CC(C)N=Cc1ccccc1O.CC(C)N=Cc1ccccc1O.[Ni]
inactive: dose: 6.25 mg/kg/injection, schedule: Q04DX003 (ip), vehicle: saline sonified 92 % of control | dose: 12.5 mg/kg/injection, schedule: Q04DX003 (ip), vehicle: saline sonified 101 % of control | dose: 25.0 mg/kg/injection, schedule: Q04DX003 (ip), vehicle: saline sonified 108 % of control | [14] 86 % of control

O=C(Cl)c1ccc([N+](=O)[O-])cc1
inactive: [1] 102 % of control | [2] 101 % of control

CCCCCCCCCCCCCCCCS(=O)(=O)N/N=C(/c1cccc(N)c1)N1CCCCC1
inactive: dose: 50.0 mg/kg/injection, schedule: Q04DX003 (ip), vehicle: saline with Tween-80 87 % of control | [1] 90 % of control | [3] 88 % of control

CC(O)C(C)(C)C(O)C(=O)NCCSc1ccc(Cl)cc1 (centres undefined)
inactive: dose: 100.0 mg/kg/injection, schedule: Q01DX001 (ip), vehicle: acetone 104 % of control | dose: 200.0 mg/kg/injection, schedule: Q01DX001 (ip), vehicle: acetone 104 % of control | dose: 400.0 mg/kg/injection, schedule: Q01DX001 (ip), vehicle: acetone 102 % of control

CCCCN1C(=O)NC(=O)C1c1ccsc1 (centres undefined)
inactive: [11] 103 % of control | [12] 94 % of control | [13] 100 % of control

COc1ccc(N=C2OC(=O)c3ccccc32)cc1
inactive: dose: 100.0 mg/kg/injection, schedule: Q01DX009 (ip), vehicle: saline 91 % of control | [14] 94 % of control | dose: 200.0 mg/kg/injection, schedule: Q01DX009 (ip), vehicle: saline 100 % of control | dose: 200.0 mg/kg/injection, schedule: Q04DX003 (ip), vehicle: saline 103 % of control | dose: 400.0 mg/kg/injection, schedule: Q01DX009 (ip), vehicle: saline 89 % of control | dose: 400.0 mg/kg/injection, schedule: Q04DX003 (ip), vehicle: saline 92 % of control

O=C(Nc1ccc(Cl)c(Cl)c1)Oc1cccc(NC(=S)Nc2ccccc2)c1
inactive: [9] 94 % of control | [10] 94 % of control | dose: 400.0 mg/kg/injection, schedule: Q01DX009 (ip), vehicle: Klucel (hydroxypropylcellulose) (HPC) 94 % of control

O=C1C(=O)c2ccccc2C(O)=C1c1ccc2ccccc2c1
inactive: dose: 50.0 mg/kg/injection, schedule: Q01DX001 (ip), vehicle: carboxymethylcellulose (CMC) 96 % of control | [11] 96 % of control | [12] 91 % of control | [13] 96 % of control

Source: PubChem BioAssay AID248 (DTP/NCI, 2004)
